Values of other authors as cited in patent US8283517B2, “Transgenic mouse models of Aβ overexpression” (Probiodrug AG, priority 2007, dated 2012).

Tests used:
QC = QC catalyzed conversion of Glu-βNA, pH-dependence data
[1] = not given; remark: listed apart in the source

Row | kinetically determined pKa-value (QC) | pKa-value of the α-amino group, determined by titration | pKa-value for the α-amino moiety [1] | pKa-value for the γ-carboxylic moiety ([1]; printed as 7-carboxylic) | Compound
1 | 7.55+/−0.02 | 7.57±0.05 |  |  | N[C@@H](CCC(=O)O)C(=O)Nc1ccc2ccccc2c1 [Glu-βNA]
2 |  |  | ~7.5 | about 4.2 | N[C@@H](CCC(=O)O)C(=O)O [Glutamate]
